Data on 28 compounds can be found in ChEMBL document CHEMBL1126733, “Orally active, nonpeptide vasopressin V1 antagonists. A novel series of 1-(1-substituted 4-piperidyl)-3,4-dihdyro-2(1H)-quinolinone” (J Med Chem, 1993).

Active and inactive are the calls of the source. No cut-off for these calls is given here.

Vasopressin V2 receptor, sequence (Q00788 whole entry): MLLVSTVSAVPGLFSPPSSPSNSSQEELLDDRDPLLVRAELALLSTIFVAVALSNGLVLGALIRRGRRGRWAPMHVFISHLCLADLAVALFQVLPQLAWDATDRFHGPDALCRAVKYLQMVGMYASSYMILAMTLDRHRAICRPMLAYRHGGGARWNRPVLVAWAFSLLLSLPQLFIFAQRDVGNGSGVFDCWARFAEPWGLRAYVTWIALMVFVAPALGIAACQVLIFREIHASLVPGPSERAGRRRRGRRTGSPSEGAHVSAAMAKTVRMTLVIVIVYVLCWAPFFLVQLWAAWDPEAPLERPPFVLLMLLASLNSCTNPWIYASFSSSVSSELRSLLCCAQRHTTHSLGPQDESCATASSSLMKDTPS

The first assay deals with Vasopressin V1a receptor (Rattus norvegicus) (UniProt P30560). Kind of assay: Inhibition expressed as percent change in diastolic blood pressure increased by AVP (30 milliunits / kg, iv) before and after oral administration at 21 uM/kg. Format: functional, organism-based. The note with it: Artery.
Vasopressin V1a receptor (Rattus norvegicus), sequence (P30560 whole entry, looked up): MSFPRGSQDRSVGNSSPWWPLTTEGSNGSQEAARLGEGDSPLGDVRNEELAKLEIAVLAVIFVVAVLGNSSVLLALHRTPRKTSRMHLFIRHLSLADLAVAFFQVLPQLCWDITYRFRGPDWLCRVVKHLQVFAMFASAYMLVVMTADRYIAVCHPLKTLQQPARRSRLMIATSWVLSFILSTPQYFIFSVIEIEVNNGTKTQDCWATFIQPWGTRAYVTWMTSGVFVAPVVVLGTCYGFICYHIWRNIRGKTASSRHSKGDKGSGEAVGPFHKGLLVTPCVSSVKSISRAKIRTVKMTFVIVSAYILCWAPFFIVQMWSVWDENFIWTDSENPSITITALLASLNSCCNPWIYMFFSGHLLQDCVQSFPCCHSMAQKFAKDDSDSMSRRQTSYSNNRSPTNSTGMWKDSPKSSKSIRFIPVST
The inhibition is the percentage by which the read-out fell short of the control. As for `CC(=O)NCCCCOc1ccc(C(=O)N2CCC(N3C(=O)CCc4ccccc43)CC2)cc1`, the inhibition came out at 78%.
Still for that read-out and setting: then `CC(=O)NCCCCCOc1ccc(C(=O)N2CCC(N3C(=O)CCc4ccccc43)CC2)cc1`, with 81%.

The target is the same in another assay. Kind of assay: Inhibition expressed as percent change in diastolic blood pressure increased by AVP (30 milliunits / kg, iv) before and after oral administration at 270 uM/kg. Format: functional, organism-based. The conditions noted are these: Artery.
Turning to `CCCc1ccc(C(=O)N2CCC(N3C(=O)CCc4ccccc43)CC2)cc1`, the inhibition is 86%.

The target is the same in another assay. The experiment in a line: Inhibition expressed as percent change in diastolic blood pressure increased by AVP (30 milliunits / kg, iv) before and after oral administration at 20 uM/kg); No effect. Format: functional, organism-based. The conditions noted are these: Artery.
Regarding `NCCCCCCCCOc1ccc(C(=O)N2CCC(N3C(=O)CCc4ccccc43)CC2)cc1`, the inhibition result was “inactive”.

A further assay has the same target. The experiment in a line: Inhibition dose for AVP (30 milliunits/kg, iv) induced vasoconstriction when orally administarted.
Conditions: not given
It is filed as functional, organism-based.
With `CC(=O)NCCOc1ccc(C(=O)N2CCC(N3C(=O)CCc4ccccc43)CC2)cc1`, the ID50 stood at 7.7 µmol/kg.
The same measure, in the same setting: the same measure for `CC(=O)NCCCCOc1ccc(C(=O)N2CCC(N3C(=O)CCc4ccccc43)CC2)cc1`: 5.3 µmol/kg; for `CC(=O)NCCCOc1ccc(C(=O)N2CCC(N3C(=O)CCc4ccccc43)CC2)cc1`: 4.4 µmol/kg; for `CC(=O)NCCCCCOc1ccc(C(=O)N2CCC(N3C(=O)CCc4ccccc43)CC2)cc1`: 4.7 µmol/kg.

The next assay shares this target. The experiment in a line: Inhibition expressed as percent change in diastolic blood pressure increased by AVP (30 milliunits / kg, iv) before and after oral administration at 76 uM/kg (n=4). It is filed as functional, organism-based. The conditions noted are these: Artery.
For `CCCOc1ccc(C(=O)N2CCC(N3C(=O)CCc4ccccc43)CC2)cc1`, the inhibition stood at 65%.

The target is the same in the next assay. The experiment in a line: Inhibition expressed as percent change in diastolic blood pressure increased by AVP (30 milliunits / kg, iv) before and after oral administration at 23 uM/kg. The conditions noted are these: Artery. Format: functional, organism-based.
The compound `CC(=O)NCCOc1ccc(C(=O)N2CCC(N3C(=O)CCc4ccccc43)CC2)cc1` returned an inhibition of 80%.

For another assay, the target named is Vasopressin V1a receptor (Rattus norvegicus, UniProt P30560). The experiment in a line: Ability to displace [3H]- Arginine Vasopressin (AVP) from its specific binding sites in rat liver (V1 receptor).
Vasopressin V1a receptor, sequence (P30560 whole entry): as the sequence (P30560 whole entry, looked up) above
Conditions: not given
The IC50 is the concentration that gives 50% inhibition. In the case of `O=C(c1ccccc1[N+](=O)[O-])N1CCC(N2C(=O)CCc3ccccc32)CC1`, the IC50 was 8.4 µM.
Same read-out and setting: then `COc1ccc(C(=O)N2CCC(N3C(=O)CCc4ccccc43)CC2)cc1`, with 0.62 µM; and `O=C(Cc1ccccc1)N1CCC(N2C(=O)CCc3ccccc32)CC1`, with 12 µM.
On the same count and under the same terms, then `CCC(=O)NCCCOc1ccc(C(=O)N2CCC(N3C(=O)CCc4ccccc43)CC2)cc1`, with 0.78 µM; and `O=C(c1ccccc1O)N1CCC(N2C(=O)CCc3ccccc32)CC1`, with 1.5 µM.
On the same count and under the same terms, the same measure for `O=C(O)c1ccc(C(=O)N2CCC(N3C(=O)CCc4ccccc43)CC2)cc1`: above 100 µM.
Take `CC(=O)NCCOc1ccc(C(=O)N2CCC(N3C(=O)CCc4ccccc43)CC2)cc1`: the IC50 is 0.42 µM.
Same read-out and setting: the same measure for `CN1CCC(N2C(=O)CCc3ccccc32)CC1`: above 100 µM; for `CCCCCCOc1ccc(C(=O)N2CCC(N3C(=O)CCc4ccccc43)CC2)cc1`: 1.5 µM.
On the same count and under the same terms, then `CCOc1ccc(C(=O)N2CCC(N3C(=O)CCc4ccccc43)CC2)cc1`, with 0.21 µM.
The same measure, in the same setting: then `CCc1ccc(C(=O)N2CCC(N3C(=O)CCc4ccccc43)CC2)cc1`, with 0.5 µM; and `O=C(c1cccc([N+](=O)[O-])c1)N1CCC(N2C(=O)CCc3ccccc32)CC1`, with 3.1 µM; and `CCCCOc1ccc(C(=O)N2CCC(N3C(=O)CCc4ccccc43)CC2)cc1`, with 0.42 µM.
Take `O=C(c1ccc(Br)cc1)N1CCC(N2C(=O)CCc3ccccc32)CC1`: the half-inhibitory concentration (IC50) was found to be 0.5 µM.
Still for that read-out and setting: the same measure for `CCCc1ccc(C(=O)N2CCC(N3C(=O)CCc4ccccc43)CC2)cc1`: 0.33 µM; for `CC(=O)Oc1cccc(C(=O)N2CCC(N3C(=O)CCc4ccccc43)CC2)c1`: 3.7 µM.
As to `O=C(c1cccc(Cl)c1)N1CCC(N2C(=O)CCc3ccccc32)CC1`, the IC50 amounted to 4.4 µM.
Compound `CCCCc1ccc(C(=O)N2CCC(N3C(=O)CCc4ccccc43)CC2)cc1` yielded an IC50 of 0.35 µM.
Same read-out and setting: then `O=CNCCCOc1ccc(C(=O)N2CCC(N3C(=O)CCc4ccccc43)CC2)cc1`, with 0.24 µM.
Same read-out and setting: then `Nc1ccc(C(=O)N2CCC(N3C(=O)CCc4ccccc43)CC2)cc1`, with 3.7 µM; and `NC(=O)c1ccc(C(=O)N2CCC(N3C(=O)CCc4ccccc43)CC2)cc1`, with 11 µM.
Consider `NCCCCOc1ccc(C(=O)N2CCC(N3C(=O)CCc4ccccc43)CC2)cc1`, for which the IC50 came to 0.33 µM.
Same read-out and setting: the same measure for `CC(=O)NCCCCOc1ccc(C(=O)N2CCC(N3C(=O)CCc4ccccc43)CC2)cc1`: 0.21 µM; for `CN(C)c1ccc(C(=O)N2CCC(N3C(=O)CCc4ccccc43)CC2)cc1`: 0.47 µM.
The same measure, in the same setting: then `NCCCCCCCCOc1ccc(C(=O)N2CCC(N3C(=O)CCc4ccccc43)CC2)cc1`, with 0.068 µM; and `CC(=O)NCCCOc1ccc(C(=O)N2CCC(N3C(=O)CCc4ccccc43)CC2)cc1`, with 0.44 µM; and `CCCOc1ccc(C(=O)N2CCC(N3C(=O)CCc4ccccc43)CC2)cc1`, with 0.32 µM.
In turn, `CC(=O)NCCCCCOc1ccc(C(=O)N2CCC(N3C(=O)CCc4ccccc43)CC2)cc1` registered a half-maximal inhibitory concentration (IC50) of 0.16 µM.

The target of the next assay is Vasopressin V1a receptor (Rattus norvegicus) (UniProt P30560). The note with it: Artery; 22 uM.
Description: Inhibition expressed as percent change in diastolic blood pressure increased by AVP (30 milliunits / kg, iv) before and after oral administration at 22 uM/kg
`CC(=O)NCCCOc1ccc(C(=O)N2CCC(N3C(=O)CCc4ccccc43)CC2)cc1` returned an inhibition of 93%.

A further assay has as its target Vasopressin V2 receptor (Rattus norvegicus, UniProt Q00788). The experiment in a line: Ability to displace [3H]- Arginine Vasopressin (AVP) from its specific binding sites in rat […].
Conditions: not given
Turning to `O=C(c1ccccc1[N+](=O)[O-])N1CCC(N2C(=O)CCc3ccccc32)CC1`, the 50% inhibitory concentration (IC50) was above 100 µM.
Still for that read-out and setting: then `COc1ccc(C(=O)N2CCC(N3C(=O)CCc4ccccc43)CC2)cc1`, with above 100 µM; and `O=C(Cc1ccccc1)N1CCC(N2C(=O)CCc3ccccc32)CC1`, with above 100 µM; and `CCC(=O)NCCCOc1ccc(C(=O)N2CCC(N3C(=O)CCc4ccccc43)CC2)cc1`, with above 100 µM.
The same measure, in the same setting: then `O=C(c1ccccc1O)N1CCC(N2C(=O)CCc3ccccc32)CC1`, with above 100 µM.
On the same count and under the same terms, then `O=C(O)c1ccc(C(=O)N2CCC(N3C(=O)CCc4ccccc43)CC2)cc1`, with above 100 µM; and `CC(=O)NCCOc1ccc(C(=O)N2CCC(N3C(=O)CCc4ccccc43)CC2)cc1`, with above 100 µM.
On to `CN1CCC(N2C(=O)CCc3ccccc32)CC1`, for which the half-maximal inhibitory concentration (IC50) was above 50 µM.
Same read-out and setting: the same measure for `CCCCCCOc1ccc(C(=O)N2CCC(N3C(=O)CCc4ccccc43)CC2)cc1`: 54 µM.
On the same count and under the same terms, then `CCOc1ccc(C(=O)N2CCC(N3C(=O)CCc4ccccc43)CC2)cc1`, with above 100 µM; and `CCc1ccc(C(=O)N2CCC(N3C(=O)CCc4ccccc43)CC2)cc1`, with 80 µM; and `O=C(c1cccc([N+](=O)[O-])c1)N1CCC(N2C(=O)CCc3ccccc32)CC1`, with above 100 µM.
The same measure, in the same setting: the same measure for `CCCCOc1ccc(C(=O)N2CCC(N3C(=O)CCc4ccccc43)CC2)cc1`: above 100 µM.
`O=C(c1ccc(Br)cc1)N1CCC(N2C(=O)CCc3ccccc32)CC1` gave an IC50 of 73 µM.
`CCCc1ccc(C(=O)N2CCC(N3C(=O)CCc4ccccc43)CC2)cc1` came in with a concentration for half-maximal inhibition (IC50) above 100 µM.
Same read-out and setting: then `CC(=O)Oc1cccc(C(=O)N2CCC(N3C(=O)CCc4ccccc43)CC2)c1`, with above 100 µM; and `O=C(c1cccc(Cl)c1)N1CCC(N2C(=O)CCc3ccccc32)CC1`, with above 100 µM.
Still for that read-out and setting: the same measure for `CCCCc1ccc(C(=O)N2CCC(N3C(=O)CCc4ccccc43)CC2)cc1`: 83 µM.
Same read-out and setting: then `O=CNCCCOc1ccc(C(=O)N2CCC(N3C(=O)CCc4ccccc43)CC2)cc1`, with above 100 µM; and `Nc1ccc(C(=O)N2CCC(N3C(=O)CCc4ccccc43)CC2)cc1`, with above 100 µM.
As to `NC(=O)c1ccc(C(=O)N2CCC(N3C(=O)CCc4ccccc43)CC2)cc1`, the IC50 is above 100 µM.
Consider `NCCCCOc1ccc(C(=O)N2CCC(N3C(=O)CCc4ccccc43)CC2)cc1`, for which the IC50 is above 100 µM.
Turning to `CC(=O)NCCCCOc1ccc(C(=O)N2CCC(N3C(=O)CCc4ccccc43)CC2)cc1`, the IC50 was above 100 µM.
Regarding `CN(C)c1ccc(C(=O)N2CCC(N3C(=O)CCc4ccccc43)CC2)cc1`, the IC50 is above 100 µM.
In turn, `NCCCCCCCCOc1ccc(C(=O)N2CCC(N3C(=O)CCc4ccccc43)CC2)cc1` showed an IC50 of 44 µM.
Same read-out and setting: then `CC(=O)NCCCOc1ccc(C(=O)N2CCC(N3C(=O)CCc4ccccc43)CC2)cc1`, with above 100 µM.
On the same count and under the same terms, then `CCCOc1ccc(C(=O)N2CCC(N3C(=O)CCc4ccccc43)CC2)cc1`, with above 100 µM.
The same measure, in the same setting: then `CC(=O)NCCCCCOc1ccc(C(=O)N2CCC(N3C(=O)CCc4ccccc43)CC2)cc1`, with above 100 µM.

The next assay addresses Vasopressin V1a receptor (Rattus norvegicus) (UniProt P30560). Kind of assay: Inhibition expressed as percent change in diastolic blood pressure increased by AVP (30 milliunits / kg, iv) before and after oral administration at 79 uM/kg (n=7). Format: functional, organism-based. The note with it: Artery.
Consider `CCOc1ccc(C(=O)N2CCC(N3C(=O)CCc4ccccc43)CC2)cc1`, for which the inhibition was 75%.
